Assay results published in ChEMBL document CHEMBL3045491, “Antituberculosis activity of hydrazones derived from 4-fluorobenzoic acid hydrazide” (2009).

System: Mycobacterium tuberculosis
Assay: Antitubercular activity against Mycobacterium tuberculosis H37Rv ATCC 27294 at 6.25 ug/ml by microplate alamar blue assay
Type: functional

Row | Compound | inhibition at 6.25 µg/mL [%]
1 | C/C(=N\NC(=O)c1ccc(F)cc1)c1ccc[nH]1 | 66
2 | C/C(=N\NC(=O)c1ccc(F)cc1)c1ccncc1 | 53
3 | C/C(=N\NC(=O)c1ccc(F)cc1)c1ccco1 | 53
4 | C/C(=N\NC(=O)c1ccc(F)cc1)c1ccc(Cl)s1 | 64
5 | CN(C)CCCOc1ccc(/C=N/NC(=O)c2ccc(F)cc2)cc1 | 58
6 | O=C(N/N=C/c1ccc(Cl)cc1Cl)c1ccc(F)cc1 | 62
7 | CC/C(=N\NC(=O)c1ccc(F)cc1)c1ccccc1 | 53
8 | C/C(=N\NC(=O)c1ccc(F)cc1)c1ccccc1 | 59
9 | O=C(N/N=C/c1cccc(Oc2ccccc2)c1)c1ccc(F)cc1 | 84
10 | C=C/C(C)=N/NC(=O)c1ccc(F)cc1 | 56
11 | C/C(=N\NC(=O)c1ccc(F)cc1)c1ccc(Br)s1 | 59
12 | O=C(N/N=C/c1cc(Cl)cc(Cl)c1O)c1ccc(F)cc1 | 69
13 | O=C(N/N=C/c1c(Cl)cccc1Cl)c1ccc(F)cc1 | 85
14 | O=C(N/N=C/c1cc(Cl)cc(Cl)c1)c1ccc(F)cc1 | 65
15 | O=C(N/N=C/c1cccc(F)c1)c1ccc(F)cc1 | 52
16 | C/C(=N\NC(=O)c1ccc(F)cc1)c1cccs1 | 50
